Test results taken from patent US8222254B2, “1, 2, 4-triazole derivatives as serotonergic modulators” (Prosarix Limited, priority 2007, dated 2012).
pEC50: −log10 of the molar value. One block for each molecule: values may come before it.

What was measured:
α1-adrenergic receptor = assay: α1-Adrenergic Receptor Assay, [3H]Prazosin competition binding; parameters: species or system rat; settings: selectivity 5HT1A over α1-adrenergic
Method: The determination of binding of the ligand with α1-adrenergic receptor was carried out according to the procedures described in Greengrass P and Bremner R. Eur. J. Pharmacol. 1979, 55: 323-326.
For competition binding, radiolabelled 0.25 nM [3H]Prazosin was incubated for 30 minutes at 25° C. with al transfected wisatar rat cerebral cortex cell membranes in 50 mM Tris-HCl, pH7.4, 0.1% Ascorbic acid, 10 mM Pargyline and increasing concentrations of test compound. The non specific ligand used was 0.1 uM Prazosin. Significance criteria was 50% of max stimulation or inhibition.

5HT1A = target: T1, 5HT1A (Homo sapiens, UniProt P08908); assay: GTPγS assay for 5HT1A agonist activity; assay type: biochemical; settings: bound [35S]GTPγS relative to serotonin response
T1 construct: expressed in transfected cells; host or cells: CHO cells (Chinese hamster)
T1 sequence (P08908 1-422): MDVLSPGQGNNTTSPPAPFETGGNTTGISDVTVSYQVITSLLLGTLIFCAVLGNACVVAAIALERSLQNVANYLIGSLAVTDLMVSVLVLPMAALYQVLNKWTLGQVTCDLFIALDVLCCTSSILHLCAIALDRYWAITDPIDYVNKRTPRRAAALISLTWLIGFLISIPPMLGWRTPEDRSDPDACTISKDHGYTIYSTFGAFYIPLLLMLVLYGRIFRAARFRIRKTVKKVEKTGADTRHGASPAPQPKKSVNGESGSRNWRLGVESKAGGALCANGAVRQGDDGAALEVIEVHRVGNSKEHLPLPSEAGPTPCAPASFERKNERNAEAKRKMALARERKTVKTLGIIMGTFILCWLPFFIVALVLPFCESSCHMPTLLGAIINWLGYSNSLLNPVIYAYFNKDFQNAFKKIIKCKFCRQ
Method: Selected compounds were tested for 5HT1A agonist activity using a GTPγS assay. GTPγS binding for 5HT1A was determined according to the procedures of Adlersberg et al. J Neurosci. Res. 2000, 61(6): 674-685. Compounds were incubated for 30 minutes at 30° C. in 20 mM HEPES, pH7.4, 100 mM NaCl, 10 mM MgCl2, 1 mM DTT, 1 mM EDTA with human CHO cells Chinese hamster. Quantitation of bound [^35S] GTPγS was determined with agonist significance criteria of >50% increase in bound [^35S] GTPγS relative to serotonin response.

dopamine D2L receptor = target: T2, dopamine D2L receptor (Homo sapiens, UniProt P14416); assay: Dopamine D2 Receptor Assay, [3H]Spiperone competition binding; settings: selectivity 5HT1A over dopamine D2
T2 construct: expressed in transfected cells; host or cells: CHO cells
Method: The determination of binding of the ligand with dopamine D2L receptor was carried out according to the procedures described in Grandy et al. Proc. Natl. Acad. Sci. 1989, 86: 9762-9766.
For competition binding, radiolabelled 0.16 nM [3H]Spiperone was incubated for 120 minutes at 25° C. with D2L transfected human recombinant CHO cells in 50 mM Tris-HCl, pH7.4, 150 mM NaCl, 1.4 mM Ascorbic acid, 0.001% BSA and increasing concentrations of test compound. The non-specific ligand used was […] haloperidol. Significance criteria was 50% of max stimulation or inhibition.

[1] = Metabolic stability in human liver microsomes; assay type: in vitro ADME; settings: pH 7.4, 1 μM compound, 0.3 mg/mL microsomes, pH7.4, 37° C.
Method: Metabolic stability of selected compounds in human liver microsomes was assessed using the procedure described by Kuhnz and Gieschen, Drug Metab. Dispos. 1998, 26: 1120-1127. Compounds (1 μM) were measured by LC/MS following 0 and 60 minute incubations with human liver microsomes (0.3 mg/mL) at pH7.4 and 37° C.

[2] = Metabolic stability in rat liver microsomes; assay type: in vitro ADME; settings: pH 7.4

T2 sequence (P14416 whole entry): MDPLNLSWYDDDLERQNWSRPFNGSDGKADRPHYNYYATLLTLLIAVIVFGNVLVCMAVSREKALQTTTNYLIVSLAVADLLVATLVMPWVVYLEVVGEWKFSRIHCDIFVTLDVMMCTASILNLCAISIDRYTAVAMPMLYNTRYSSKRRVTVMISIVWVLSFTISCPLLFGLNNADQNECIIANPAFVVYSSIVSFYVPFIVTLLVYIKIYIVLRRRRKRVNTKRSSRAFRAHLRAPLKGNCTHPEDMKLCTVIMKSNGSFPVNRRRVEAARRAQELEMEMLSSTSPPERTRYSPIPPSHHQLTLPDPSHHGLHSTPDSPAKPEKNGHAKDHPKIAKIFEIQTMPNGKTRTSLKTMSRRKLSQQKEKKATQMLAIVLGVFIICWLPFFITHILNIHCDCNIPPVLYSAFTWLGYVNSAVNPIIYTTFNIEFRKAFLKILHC

- affinity for 5HT1A relative to affinity for α1-adrenergic receptors (α1-adrenergic receptor): more than fifty times greater
Structure (SMILES): CC(=O)Nc1cccc(N2CCN(CCCc3n[nH]c(=O)n3CC3CCCCC3)CC2)c1 [Example 39, N-(3-{4-[3-(4-Cyclohexylmethyl-5-oxo-4,5-dihydro-1H-[1,2,4]triazol-3-yl)-propyl]-piperazin-1-yl}-phenyl)-acetamide]

- pEC50 (5HT1A): > 6.70
Structure (SMILES): COc1ccccc1N1CCN(CCc2n[nH]c(=O)n2Cc2ccc(Cl)c(Cl)c2)CC1 [Example 21, 4-(3,4-Dichloro-benzyl)-5-{2-[4-(2-methoxy-phenyl)-piperazin-1-yl]-ethyl}-2,4-dihydro-[1,2,4]triazol-3-one]

- affinity for 5HT1A relative to affinity for dopamine D2 receptors (dopamine D2L receptor): more than a thousand times greater
- pEC50 (5HT1A): > 6.70
Structure (SMILES): CC(=O)Nc1cccc(N2CCN(CCc3nn(C)c(=O)n3CC3CCCCC3)CC2)c1 [Example 41, N-[3-(4-{2-[4-(Cyclohexylmethyl)-1-methyl-5-oxo-4,5-dihydro-1H-1,2,4-triazol-3-yl]ethyl}piperazino)phenyl]acetamide]

- half-life at 1 μM [1]: ≥ 1 h
- half-life at 1 μM [2]: ≥ 1 h
Structure (SMILES): COc1ccccc1N1CCN(CCc2n[nH]c(=O)n2Cc2ccccc2)CC1 [Example 13, 4-Benzyl-5-{2-[4-(2-methoxy-phenyl)-piperazin-1-yl]-ethyl}-2,4-dihydro-[1,2,4]triazol-3-one]

- affinity for 5HT1A relative to affinity for α1-adrenergic receptors (α1-adrenergic receptor): more than fifty times greater
- affinity for 5HT1A relative to affinity for dopamine D2 receptors (dopamine D2L receptor): more than fifty times greater
Structure (SMILES): CC(=O)Nc1cccc(N2CCN(CCc3n[nH]c(=O)n3CC3CCCCC3)CC2)c1 [Example 38, N-[3-(4-{2-[4-(Cyclohexylmethyl)-5-oxo-4,5-dihydro-1H-1,2,4-triazol-3-yl]ethyl}piperazin-1-yl)phenyl]acetamide]

- pEC50 (5HT1A): > 6.70
Structure (SMILES): COc1ccccc1N1CCN(CCc2n[nH]c(=O)n2-c2ccc(Cl)c(Cl)c2)CC1 [Example 33, 4-(3,4-Dichloro-phenyl)-5-{2-[4-(2-methoxy-phenyl)-piperazin-1-yl]-ethyl}-2,4-dihydro-[1,2,4]triazol-3-one]

- pEC50 (5HT1A): > 6.70
Structure (SMILES): COc1ccccc1N1CCN(CCc2nn(C)c(=O)n2CC2CCCCC2)CC1 [Example 42, 4-(Cyclohexylmethyl)-5-{2-[4-(2-methoxyphenyl)piperazino]ethyl}-2-methyl-2,4-dihydro-3H-1,2,4-triazol-3-one]

- pEC50 (5HT1A): > 6.70
Structure (SMILES): COc1ccccc1N1CCN(CCc2n[nH]c(=O)n2C(c2ccccc2)c2ccccc2)CC1 [Example 28, 4-Benzhydryl-5-{2-[4-(2-methoxy-phenyl)-piperazin-1-yl]-ethyl}-2,4-dihydro-[1,2,4]triazol-3-one]

- affinity for 5HT1A relative to affinity for α1-adrenergic receptors (α1-adrenergic receptor): more than fifty times greater
- affinity for 5HT1A relative to affinity for dopamine D2 receptors (dopamine D2L receptor): more than fifty times greater
Structure (SMILES): COc1ccccc1N1CCN(C(C)Cc2nn(C)c(=O)n2CC2CCCCC2)CC1 (stereo not drawn) [Example 37, 4-(Cyclohexylmethyl)-5-{2-[4-(2-methoxyphenyl)piperazin-1-yl]propyl}-2-methyl-2,4-dihydro-3H-1,2,4-triazol-3-one]

- pEC50 (5HT1A): > 6.70
Structure (SMILES): COc1ccccc1N1CCN(CCc2n[nH]c(=O)n2C2CCCCCCC2)CC1 [Example 10, 4-Cyclooctyl-5-{2-[4-(2-methoxyphenyl)piperazino]ethyl}-2,4-dihydro-3H-1,2,4-triazol-3-one]

- half-life at 1 μM [1]: ≥ 1 h
- half-life at 1 μM [2]: ≥ 1 h
Structure (SMILES): COc1ccccc1N1CCN(CCc2n[nH]c(=O)n2Cc2cccc(F)c2)CC1 [Example 26, 4-(3-Fluoro-benzyl)-5-{2-[4-(2-methoxy-phenyl)-piperazin-1-yl]-ethyl}-2,4-dihydro-[1,2,4]triazol-3-one]

- half-life at 1 μM [1]: ≥ 1 h
- half-life at 1 μM [2]: ≥ 1 h
Structure (SMILES): COc1ccccc1N1CCN(CCc2n[nH]c(=O)n2CC2CCCCC2)CC1 [Example 17, 4-(Cyclohexylmethyl)-5-{2-[4-(2-methoxyphenyl)piperazino]ethyl}-2,4-dihydro-3H-1,2,4-triazol-3-one]
